# Several values for one entry are separate records, joined by “and”; a condition that tells them apart may be missing. Equal values may be shown once.
# Columns and labels:
# [1] = system: cocaine-dependent volunteers; test: Behavioral ratings of rush, high, low and craving (integer scale 0 to 3) after cocaine infusion; assay type: in vivo; conditions: human
# From the text: During FAIR and BOLD infusion scans, behavioral measures of rush, high, low, and craving were obtained in a continuous sequence each minute. Thus, over each 15 second epoch, one rating scale would be projected for the subject's response. Given four scales, it took one minute to cycle through the complete set of scales. Timing of scan initiation, infusion onset and offset, and scan completion were linked with ongoing behavioral reports to allow subsequent correlational analysis between behavioral ratings and fMRI acquisitions. Behavioral responses were acquired with a four-button button-press which had been adapted to the magnet environment by construction with non-magnetic components and filtering of its output at the Faraday shield.
# To obtain meaningful behavioral ratings during scanning, subjects were trained beforehand. The day before scanning, subjects were interviewed in depth by one of two board-certified psychiatrists to fully describe their experience of cocaine intake. These descriptions were then categorized by the psychiatrist and subject into four components: the rush, high, low, and craving which were to be rated on an integer scale of 0 (none) to 3 (maximum). The individualized conventions for description of subjective responses were then tested, during the unblinded pre-infusion with 0.2 mg/kg cocaine, on a portable computer with a program simulating that used in the MRI.
# Of the four behavioral measures, only craving was defined operationally in terms of the action the individual wanted to engage in (to get more cocaine). The other three behavioral measures, rush, high, and low, were defined in terms of subjective feelings which were not necessarily associated with a behavioral output, or associated with the planning and implementation of physical activity. Thus, by definition, only craving was defined as a motivational state. In general, rush experiences involved physical sensations of elevated heart rate and sweating, along with internal feelings variously characterized as ‘speeding’ sensations and sensations of ‘being out-of-control’. In contrast, the high experience was generally associated with feelings of self-confidence, well-being, and sociability. The low experience encompassed all negative subjective feelings potentially associated with cocaine use such as anxiety, paranoia, dysphoria, or anhedonia; the majority of subjects in this study discussed the low in terms of dysphoric affect distinct from a diminishment in the high experience.
# Behavioral Data: The integer output for each behavioral rating was segregated by category of rush, high, low, and craving. For the group data in FIG. 2, the 18 measures for each behavioral category obtained during the 18 minute BOLD infusion scan were averaged for the 9 subjects with both interpretable behavioral data and fMRI data. This averaged data was then utilized in the correlational analysis of the cocaine fMRI data.
# [2] = system: rat frontal cortex; test: Laser Doppler-flowmetry (LDF) of regional cortical blood flow (CBF) in rat; assay type: in vivo
# Description: (§1) All procedures were carried out in accordance with NIH guidelines. Male Harlan Sprague-Dawley rats (225-300 gm) were anesthetized briefly with 1.5% halothane in oxygen for insertion of left femoral arterial and venous cannulae and placement of tracheostomy for mechanical ventilation (using a 16 gauge intravenous catheter, Inste-W, Becton Dickinson, Sandy, Utah). All wounds were infiltrated with 1% lidocaine before incision. Following surgery, the inspired halothane concentration was reduced to 0.7% and rats were paralyzed with 2 mg/kg intravenous pancuronium, followed by a continuous intravenous infusion of pancuronium at 2 mg/kg/hr. Pancuronium was dissolved in normal saline administered at 5 ml/kg/hr. Rats were mechanically ventilated (in a small animal volume controlled ventilator, Harvard Apparatus, Inc., South Natick, Mass.) with a 80/20 air/oxygen mixture, an inspiratory to expiratory ratio of 1:1, and an initial tidal volume of 3.0 ml at a rate of 40 breaths per minute. Ventilation parameters were adjusted to maintain normal arterial blood gases (pH=7.40±0.01, PaCO2=40±2, PaO2=145±10). Arterial blood samples (150 μl) withdrawn from cannula were analyzed for arterial partial pressures of oxygen, carbon dioxide, and pH (Ciba-Coming Model 1304) before administration of drugs, and at the end of each experiment before sacrifice, to ensure animal stability. Arterial blood pressure and rectal temperature were monitored throughout the experiment. […] Rats torsos were wrapped in two heating blankets (Gaymar, Orchid Park, N.Y.) circulating warm water to maintain core temperature at 37-38° C. To minimize MRI motion artifact, rats were placed into a custom plastic cradle attached to a head frame machined from delrin plastic (David Kopf Instruments, Fremont, Calif.); heads were fixed with plastic screws inserted into the ear canals and a bar inserted under the front incisors. Rat heads were shaved and covered with gel toothpaste to reduce magnetic susceptibility artifacts arising from air-tissue interfaces; ear canals and oropharynx were also filled with toothpaste. A surface coil was secured over the dorsal surface of the head before positioning the animal in the magnet center. Cocaine (RBI, Natick, Mass.), SCH-23390 (RBI, Natick, Mass.), and cocaine methiodide (NIDA, Bethesda, Md.) were dissolved in normal saline and administered in a 0.5 ml volume at a rate of 1 ml/min via the femoral vein. Sixty minutes passed before injections of cocaine were repeated.
# Regional cortical blood flow was determined by LDF (Perimed, PF2B, Stockholm, Sweden) as described previously (Ayata, et al., 1996, J. Cereb. Blood Flow Metab., 16:539-541). Rats (n=8) were prepared exactly as for dynamic MR studies and positioned in a standard stereotaxic head frame. With the scalp incised and retracted, two holes (1-2 mm in diameter) were drilled through the skull 2 mm lateral to midline; one hole was 2 mm anterior to bregma overlying frontal cortex, and the other was 8 mm posterior to bregma to examine occipital cortex. The flow probe was positioned directly upon exposed dura mater in a puddle of mineral oil. […] All data were collected, stored, and analyzed using MacLab/8 data acquisition and analysis system (ADInstruments, Mountain View, Calif.). Arterial pressure was continuously monitored and the data stored; heart rate was calculated from arterial pressure pulses by the data acquisition software. […]
# [3] = system: rat brain regions; test: CBV-weighted fMRI with MION contrast in rat after IV cocaine; assay type: in vivo
# [4] = system: Male Harlan Sprague-Dawley rats; test: Arterial blood pressure and heart rate monitoring in rat
# Description: as §1, with “To minimize MRI motion artifact, rats were placed into a custom plastic cradle attached to a head frame machined from delrin plastic (David Kopf Instruments, Fremont, Calif.); heads were fixed with plastic screws inserted into the ear canals and a bar inserted under the front incisors. Rat heads were shaved and covered with gel toothpaste to reduce magnetic susceptibility artifacts arising from air-tissue interfaces; ear canals and oropharynx were also filled with toothpaste. A surface coil was secured over the dorsal surface of the head before positioning the animal in the magnet center. Cocaine (RBI, Natick, Mass.), SCH-23390 (RBI, Natick, Mass.), and cocaine methiodide (NIDA, Bethesda, Md.) were dissolved in normal saline and administered in a 0.5 ml volume at a rate of 1 ml/min via the femoral vein. Sixty minutes passed before injections of cocaine were repeated.” left out
# Regional cortical blood flow was determined by LDF (Perimed, PF2B, Stockholm, Sweden) as described previously (Ayata, et al., 1996, J. Cereb. Blood Flow Metab., 16:539-541). […] All data were collected, stored, and analyzed using MacLab/8 data acquisition and analysis system (ADInstruments, Mountain View, Calif.). Arterial pressure was continuously monitored and the data stored; heart rate was calculated from arterial pressure pulses by the data acquisition software. […]
# [5] = 0.6 mg/kg IV blinded, scale 0-3
# [6] = 0.6 mg/kg IV, post-infusion, 0.6 mg/kg
# [7] = rat frontal cortex, cocaine 0.5 mg/kg IV
# [8] = rat frontal cortex, cocaine 0.5 mg/kg IV, post infusion
structure (smiles),measurement,setting,value
COC(=O)[C@H]1[C@@H](OC(=O)c2ccccc2)C[C@@H]2CC[C@H]1N2C [cocaine],craving rating,"[1]; 0.2 mg/kg IV, unblinded",1.0±1.3
same,high rating,"[1]; 0.2 mg/kg IV, unblinded",1.7±1.2
same,low rating,"[1]; 0.2 mg/kg IV, unblinded",0.8±0.8
same,rush rating,"[1]; 0.2 mg/kg IV, unblinded",1.2±1.1
same,peak craving rating,[1]; [5],1.3±0.9
same,peak high rating,[1]; [5],2.1±0.8
same,peak low rating,[1]; [5],0.9±0.8
same,peak rush rating (mean±SD),[1]; [5],2.2±1.1
same,time of peak high,"[1]; 0.6 mg/kg IV, post-infusion",3 min
same,time of peak rush,"[1]; 0.6 mg/kg IV, post-infusion",3 min
same,time of peak craving,[1]; [6],12 min and 11 to 12 min
same,time of peak low,[1]; [6],11 min and 11 to 12 min
same,craving rating,"[1]; retest infusion, four subjects",1.0±1.2
same,high rating,"[1]; retest infusion, four subjects",2.3±0.5
same,low rating,"[1]; retest infusion, four subjects",1.0±0.8
same,rush rating,"[1]; retest infusion, four subjects",1.8±1.0
same,maximum increase of cortical CBF over baseline,[2]; [7],41%
same,time to peak CBF,[2]; [7],approximately 3.5 minutes
same,time of return of CBF to baseline,[2]; [8],≤ 25 min
same,maximum elevation of frontal cortex blood flow,"[2]; rat, LDF, after 1 mg/kg cocaine",35±3
same,maximum increase of cortical CBV over baseline,[3]; [7],32%
same,time to peak CBV,[3]; [7],approximately 3.5 minutes
same,time of return of CBV to baseline,[3]; [8],≤ 25 min
same,"time to maximum CBV change, all cortical and subcortical regions","[3]; rat, after initiation of 0.5 mg/kg cocaine infusion",3 to 6 min
same,"increase in CBV at peak, agranular lateral frontal neocortex","[3]; rat, cocaine 0.5 mg/kg IV",~30%
same,"increase in CBV at peak, agranular medial frontal neocortex","[3]; rat, cocaine 0.5 mg/kg IV",approximately 40%
same,average CBV response of four subcortical regions relative to five frontal and parietal cortical regions,"[3]; rat, cocaine 0.5 mg/kg IV, p<0.005",45%
same,adverse cardiovascular response,[4]; cocaine doses above 5 mg/kg IV,profound hypotension and cardiac arrhythmia
same,transient increase in arterial blood pressure,[4]; cocaine infusion 0.5 mg/kg,5-10 mm Hg

# Source: patent US6517812B1, “Inhibition of psychostimulant-induced and nicotine-induced craving” (The General Hospital Corporation, priority 1997, dated 2003)
